Results from US9717756B2, “Method of treating traumatic brain or spinal cord injury with biomembrane sealing agent and magnesium compounds” (Warsaw Orthopedic, Inc., priority 2006, dated 2017).

Key:
[1] = system: carrageenan-induced hind paw acute inflammation; experiment: Carrageenan hind paw acute inflammation, mechanical allodynia (up-down method); assay type: in vivo, rat; settings: Example 7, 24 hours after carrageenan
Method: Animals were treated with saline (0.5% final), indomethacin, PEG, magnesium or combined PEG+magnesium solutions. Each animal received 2 injections, the first one 1 hour following carrageenan injection and the second injection 6 hours later. The total dose of PEG and magnesium chloride administered was of 2 and 0.135 g/kg (body weight) respectively. There were 10 animals per group.
Indomethacin (Fluka, cat. 57413, lot 450544/1) was dissolved in 25% hydroxyl-propyl beta cyclodextrin (hpBCD) by gentle heating and stirring. The PEG solution was composed of PEG3350 at 30% in 0.5% saline, the magnesium solution was composed of magnesium chloride at 2% and the combined PEG+magnesium solution was composed of 30% PEG3350+2% Magnesium Chloride (custom made by AAIPharma Developmental Services, Wilmington, N.C.). […]
Twenty-four hours following carrageenan injection into the left paw, the same paw was tested for mechanical allodynia. Baseline and post-treatment values for non-noxious mechanical sensitivity were evaluated using 8 Semmes-Weinstein filaments (Stoelting, Wood Dale, Ill., USA) with varying stiffness (0.4, 0.7, 1.2, 2.0, 3.6, 5.5, 8.5, and 15 g) according to the up-down method (Chaplan et al., 1994). […]
To evaluate the significance of difference between experimental groups, data were analyzed using an unpaired, two-tailed t statistical test with confidence intervals of 95%.

[2] = system: controlled cortical impact model of brain injury (TBI); experiment: Morris Water Maze test of cognitive function after controlled cortical impact TBI; assay type: in vivo, rat
Excerpt: Male Sprague-Dawley rats (Harlan Sprague-Dawley, Indianapolis, Ind.), weighing 350-450 grams each were given free access to food and water before the experiment. The animals were anesthetized with halothane (1% in 70%/30% NO2/O2 by mask).
Animals were anesthetized with isoflorane and placed in a stereotaxic frame in the supine position. A 6 mm craniotomy located approximately midway between bregma and lambda, just above the somatosensory cortex, was made using a Michele trephine. The skull disk was then removed without disturbing the underlying dura mater. The exposed brain was injured using an electronically controlled piston (5 mm diameter, 65 kdynes). The animals in the “sham” group underwent identical surgical procedures, but the surface of the brain was not impacted.
Following surgery, animals were placed in their home cage and dosing was initiated. Animals were treated with saline (Group 1: sham, Group 2: injured), PEG (Group 3: injured), magnesium (Group 4: injured) or a combination of PEG and magnesium solutions (Group 5: injured). The PEG solution was composed of PEG3350 at 30% in 0.5% saline (custom made by AAIPharma Developmental Services, Wilmington, N.C.). […] The magnesium solution was diluted in saline 1:1 before intravenous injection as recommended by the manufacturer. In the cases of combined PEG+Mg combined treatments, animal received the PEG and magnesium components from two individual solutions.
In more details, each animal received 2 injections: • Group 1: Sham—1.23 ml/kg of saline solution followed by 1.23 ml/kg of saline solution; • Group 2: Injured—1.23 ml/kg of saline solution followed by 1.23 ml/kg of saline solution; • Group 3: Injured—2.33 ml/kg of PEG solution followed by 0.12 ml/kg of saline solution; • Group 4: Injured—0.12 ml/kg of magnesium solution followed by 2.33 ml/kg of saline solution; • Group 5: Injured—2.33 ml/kg of PEG solution followed by 0.12 ml/kg of magnesium solution. […]
The effects of PEG, magnesium sulfate and combined treatment on recovery of cognitive function following TBI were evaluated using the Morris Water Maze Test. […]

pain = settings: human, in vivo; cited from earlier work
[3] = system: spinal cord contusion at T10 (SCI); experiment: Locomotor recovery, modified 12-point BBB scale, after spinal cord contusion (dural impact model); assay type: in vivo, rat; settings: Example 4; iv, 15 min and 6 h post-injury; total 2 g/kg PEG, 0.12 g/kg magnesium sulfate
Method: Sprague-Dawley female rats (200-225 gm) received a spinal cord contusion using the Precision Scientific Inc pneumatic impactor. Prior to surgery, rats were assigned to different treatment groups based on a randomized block design so that on any given surgery day all treatments would be included. The rats were anesthetized with ketamine (80 mg/kg) and xylazine (10 mg/kg) before a laminectomy will be performed at the 10th thoracic vertebra (T10). The vertebral column was stabilized with angled clamps on the upper thoracic (T8) and lumbar (T11) levels and the impactor with a tip diameter of 2 mm was delivered at approximately 50 kd onto the exposed, intact dura overlying the dorsal spinal cord. The impactor was immediately removed, the wound irrigated with saline, and the muscle and skin openings sutured together. Female animals were used due to the paralysis associated with the injury and ease of voiding the bladder.
Following surgery, animals were placed in their home cage and dosing was initiated. Animals were treated with saline (Group 1: sham, Group 2: injured), PEG (Group 3: injured), magnesium (Group 4: injured) or a combination of PEG and magnesium solutions (Group 5: injured). […]
(§1) To evaluate the significance of difference between experimental groups, data were analyzed using an unpaired, two-tailed t statistical test with confidence intervals of 95%. […]

[4] = system: spinal cord contusion at T10 (SCI); experiment: Spinal cord lesion volume after SCI contusion (eriochrome cyanine sections); assay type: in vivo, rat; settings: Example 4, sacrificed on day 14, total 2 g/kg PEG, 0.12 g/kg magnesium sulfate
Method: Following surgery, animals were placed in their home cage and dosing was initiated. […]
At the end of the study, the spinal cords were extracted and fixed in 4% paraformaldehyde. […] Tissue sparing was determined by computed image analysis be from 10 evenly spaced sections through the injured T10 segment. […]

[5] = system: clip-compression injury at T4 (SCI); experiment: Locomotor recovery, 21-point BBB open field test, after clip-compression SCI; assay type: in vivo, rat; settings: Example 5; day 7 post-SCI; total 0.6 g/kg magnesium sulfate iv
Method: Wistar female rats weighing 200-250 grams received a controlled clip-compression injury at T4. This experimental model has been previously described in details in Gris et al., 2004. Briefly, animals were premedicated with diazepam (3.5 mg/kg, i.p.) and atropine (0.05 mg/kg, s.c.) in order to facilitate a smooth induction of anesthesia by 4% halothane and maintenance with 1.0-1.5% halothane. The T4 spinal cord segment was exposed by dorsal laminectomy and a modified aneurysm clip, calibrated to 50 grams compression was passed extradurally around the cord and spring released for 60 seconds. Nerve roots were not disrupted during the clip compression.
Following SCI, animals were placed in their home cage and dosing was initiated. […]
Locomotor recovery was assessed by the 21-point Basso, Beatie and Bresnahan (BBB) open field locomotor test (Basso et al., 1995), from day 3-21 after injury. Locomotor function was evaluated by 2 blinded investigators at each testing period.
as §1
Following SCI, rats were treated with saline, PEG, Mg or a combined solution of PEG and Mg. Locomotor recovery was assessed by the 21-point BBB score system from day 3-25 post-injury.

[6] = system: neuropathic pain after SCI; experiment: Mechanical allodynia (neuropathic pain score, Semmes-Weinstein monofilament) after SCI; assay type: in vivo, rat; settings: Example 6; up to 3 weeks post-injury
Method: Animals were prepared as described in Example 3.
Animals were tested for the development of neuropathic pain before and up to 3 weeks post-injury. Neuropathic pain occurrence and severity was evaluated by the response of the animal to a stimulus that is normally not painful or allodynia. Briefly, a modified Semmes-Weinstein monofilament (Stoelting Co, Wood Dale, Ill.) calibrated to generate a force of 15 mN was applied to the dorsal trunk at dermatomes corresponding to spinal segments immediately rostral to the lesion level (T1-T3). The monofilament was applied 10 times for 3 seconds, with each stimulus being separated by a 5 second interval, and the number of avoidance responses out of a possible 10 were recorded. Avoidance responses were defined as flinching, escape, vocalization, or abnormal aggressive behaviors. The scoring system used to monitor mechanical allodynia has been presented in details in Gris et al., 2004. Mechanical allodynia testing was conducted twice per week and the 2 tests were averaged for each animal and reported as a weekly pain score.
To evaluate the significance of difference between experimental groups, data were analyzed using an unpaired, two-tailed t statistical test with confidence intervals of 95%. The Welch's modification was also used to analyze the motor recovery to take in account the significant variability in the control group. […]

stroke = settings: intravenous, up to 12 hours following stroke onset; 2589 patients; cited from earlier work
TBI = settings: trial initiated in 1999; cited from earlier work

Q: For `COc1ccc2c(c1)c(CC(=O)O)c(C)n2C(=O)c1ccc(Cl)cc1` [Indomethacin], which “mean pain score (mechanical allodynia)” value ([1]; carrageenan-saline 3.4+/−0.5, sham 12.7+/−1.1, higher is better) is on record?
A: 5.6+/−0.9

Q: Which results are given for `[Cl-].[Cl-].[Mg+2]` [Magnesium, magnesium chloride]?
A: effect on the loss of cognitive functions following brain injury ([2]; summary statement in the description): no effect; effect on the pain score relative to animals treated with saline ([1]; total 2 g/kg PEG or 0.135 g/kg magnesium chloride): no significant effect; duration of analgesic effect (pain): ≤ 4 h

Q: Which results are given for `O=S(=O)([O-])[O-].[Mg+2]` [Mg, magnesium sulfate]?
A: effect on cognitive functions following TBI ([2]; Example 1, iv, 15 min and 6 h post-injury, total 1.4 g/kg PEG or 0.230 mmol/kg magnesium sulfate): no effect; effect on motor functions following SCI (12-point BBB score) relative to SCI-Saline group [3]: no effect; reduction of the lesion volume relative to control group (SCI-Saline) [4]: 33%; effect on motor recovery (21-point BBB) [5]: Some improvement; effect on the development of neuropathic pain after SCI [6]: no significant effect; clinical improvement after stroke (stroke): no significant improvement; preliminary data of clinical trial in TBI patients (TBI): negative

Q: For `[Cl-].[Cl-].[Mg+2]` [magnesium chloride], which “effect on cognitive recovery after TBI” value ([2]; Example 2, total 1.4 g/kg PEG or 0.230 mmol/kg magnesium chloride) is on record?
A: no significant effect
